assay: Inhibition of sheep kidney esterase activity of carbonic anhydrase using 4-nitrophenylacetate as substrate after 3 mins by spectrophotometric analysis; design: species or system Ovis aries

Row | Compound | Ki
1 | NS(=O)(=O)c1ccc2ccccc2c1 | 2.59 µM
2 | NS(=O)(=O)c1ccccc1Br | 5.87 µM
3 | NS(=O)(=O)c1ccccc1 [BENZENESULFONAMIDE] | 8.66 µM
4 | Cc1ccc(S(N)(=O)=O)cc1 [P-TOLUENESULFONAMIDE] | 1.35 µM
5 | Nc1ccc(S(N)(=O)=O)cc1 [SULFANILAMIDE] | 69.3 µM

Source: ChEMBL document CHEMBL2331399, “Purification and characterization of carbonic anhydrase from sheep kidney and effects of sulfonamides on enzyme activity” (Bioorg Med Chem, 2013)
